ChEMBL document CHEMBL3352641, “Discovery of pyrrolo[1,2-b]pyridazine-3-carboxamides as Janus kinase (JAK) inhibitors” (Bioorg Med Chem Lett, 2014)
pIC50: −log10 of the molar value.

What was measured:
[1] = biological target: T1, Tyrosine-protein kinase JAK3 (Homo sapiens, UniProt P52333); test: Inhibition of JAK3 (unknown origin) by filter assay
T1 sequence (P52333 whole entry): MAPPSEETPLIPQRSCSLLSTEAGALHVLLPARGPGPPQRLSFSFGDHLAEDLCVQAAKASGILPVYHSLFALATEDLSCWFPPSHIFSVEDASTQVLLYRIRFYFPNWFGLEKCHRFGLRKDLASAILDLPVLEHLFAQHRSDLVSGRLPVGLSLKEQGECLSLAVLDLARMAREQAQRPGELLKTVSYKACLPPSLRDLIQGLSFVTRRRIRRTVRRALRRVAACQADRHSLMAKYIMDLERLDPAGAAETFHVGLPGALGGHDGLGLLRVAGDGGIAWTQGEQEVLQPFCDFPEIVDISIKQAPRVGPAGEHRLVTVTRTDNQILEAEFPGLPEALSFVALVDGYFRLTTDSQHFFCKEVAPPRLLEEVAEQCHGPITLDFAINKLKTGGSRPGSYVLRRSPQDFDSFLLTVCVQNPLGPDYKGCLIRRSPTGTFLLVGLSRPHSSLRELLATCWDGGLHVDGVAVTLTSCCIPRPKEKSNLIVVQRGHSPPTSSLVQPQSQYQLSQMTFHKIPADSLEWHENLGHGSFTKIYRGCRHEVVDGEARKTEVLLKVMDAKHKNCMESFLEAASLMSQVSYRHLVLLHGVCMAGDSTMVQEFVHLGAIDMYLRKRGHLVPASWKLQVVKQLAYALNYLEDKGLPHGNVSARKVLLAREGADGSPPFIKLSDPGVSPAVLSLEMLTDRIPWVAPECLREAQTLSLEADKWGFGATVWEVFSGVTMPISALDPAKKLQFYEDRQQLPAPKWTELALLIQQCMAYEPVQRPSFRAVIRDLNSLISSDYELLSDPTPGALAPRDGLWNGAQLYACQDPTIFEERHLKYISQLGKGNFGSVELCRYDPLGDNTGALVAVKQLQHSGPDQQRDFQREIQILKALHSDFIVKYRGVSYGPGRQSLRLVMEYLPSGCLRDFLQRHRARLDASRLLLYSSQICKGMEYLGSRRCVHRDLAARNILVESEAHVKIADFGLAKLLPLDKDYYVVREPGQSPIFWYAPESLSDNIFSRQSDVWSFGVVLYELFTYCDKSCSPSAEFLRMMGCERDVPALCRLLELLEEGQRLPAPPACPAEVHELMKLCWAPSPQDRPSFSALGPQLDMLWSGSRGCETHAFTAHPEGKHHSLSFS

[2] = biological target: Tyrosine-protein kinase JAK1 (Homo sapiens, UniProt P23458); test: Inhibition of JAK1 (unknown origin) bycaliper assay
[3] = biological target: Non-receptor tyrosine-protein kinase TYK2 (Homo sapiens, UniProt P29597); test: Inhibition of TYK2 (unknown origin) by caliper assay
[4] = biological target: Tyrosine-protein kinase JAK2 (Homo sapiens, UniProt O60674); test: Inhibition of JAK2 (unknown origin) by caliper assay
[5] = system: Blood; test: Inhibition of IL2-induced IFN-gamma production in human whole blood incubated for 18 hrs by ELISA method; format: functional, tissue-based
[6] = Fraction unbound in human serum; format: ADME, cell-free

Tyrosine-protein kinase JAK1, sequence (P23458 whole entry): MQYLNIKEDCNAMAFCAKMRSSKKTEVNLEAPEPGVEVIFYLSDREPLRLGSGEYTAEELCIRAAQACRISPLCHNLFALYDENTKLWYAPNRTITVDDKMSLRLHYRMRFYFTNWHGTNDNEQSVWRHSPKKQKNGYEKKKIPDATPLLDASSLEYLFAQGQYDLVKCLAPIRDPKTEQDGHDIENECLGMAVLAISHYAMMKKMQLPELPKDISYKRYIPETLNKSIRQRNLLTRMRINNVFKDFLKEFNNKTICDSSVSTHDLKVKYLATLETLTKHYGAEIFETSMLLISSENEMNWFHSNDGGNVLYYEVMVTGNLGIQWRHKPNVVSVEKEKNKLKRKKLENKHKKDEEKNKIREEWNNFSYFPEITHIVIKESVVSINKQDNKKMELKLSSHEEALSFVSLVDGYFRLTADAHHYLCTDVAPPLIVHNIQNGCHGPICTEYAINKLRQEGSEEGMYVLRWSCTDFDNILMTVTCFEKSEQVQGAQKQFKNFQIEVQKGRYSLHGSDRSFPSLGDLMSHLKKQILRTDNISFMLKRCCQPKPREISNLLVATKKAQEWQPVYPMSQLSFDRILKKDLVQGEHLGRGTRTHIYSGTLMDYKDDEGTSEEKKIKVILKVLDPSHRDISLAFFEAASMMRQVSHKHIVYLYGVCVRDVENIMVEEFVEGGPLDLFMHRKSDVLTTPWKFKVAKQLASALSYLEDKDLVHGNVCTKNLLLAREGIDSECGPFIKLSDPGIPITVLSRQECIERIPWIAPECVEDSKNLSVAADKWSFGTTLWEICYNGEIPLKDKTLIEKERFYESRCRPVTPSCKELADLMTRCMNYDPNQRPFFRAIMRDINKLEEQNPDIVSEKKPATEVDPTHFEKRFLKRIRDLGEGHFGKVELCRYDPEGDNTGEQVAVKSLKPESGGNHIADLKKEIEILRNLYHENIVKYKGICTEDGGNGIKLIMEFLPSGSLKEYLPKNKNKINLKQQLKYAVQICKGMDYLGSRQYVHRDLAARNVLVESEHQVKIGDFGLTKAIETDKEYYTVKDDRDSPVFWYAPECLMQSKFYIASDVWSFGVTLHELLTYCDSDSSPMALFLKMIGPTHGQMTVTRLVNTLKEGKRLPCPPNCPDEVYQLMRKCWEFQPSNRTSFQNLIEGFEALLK
Non-receptor tyrosine-protein kinase TYK2, sequence (P29597 whole entry): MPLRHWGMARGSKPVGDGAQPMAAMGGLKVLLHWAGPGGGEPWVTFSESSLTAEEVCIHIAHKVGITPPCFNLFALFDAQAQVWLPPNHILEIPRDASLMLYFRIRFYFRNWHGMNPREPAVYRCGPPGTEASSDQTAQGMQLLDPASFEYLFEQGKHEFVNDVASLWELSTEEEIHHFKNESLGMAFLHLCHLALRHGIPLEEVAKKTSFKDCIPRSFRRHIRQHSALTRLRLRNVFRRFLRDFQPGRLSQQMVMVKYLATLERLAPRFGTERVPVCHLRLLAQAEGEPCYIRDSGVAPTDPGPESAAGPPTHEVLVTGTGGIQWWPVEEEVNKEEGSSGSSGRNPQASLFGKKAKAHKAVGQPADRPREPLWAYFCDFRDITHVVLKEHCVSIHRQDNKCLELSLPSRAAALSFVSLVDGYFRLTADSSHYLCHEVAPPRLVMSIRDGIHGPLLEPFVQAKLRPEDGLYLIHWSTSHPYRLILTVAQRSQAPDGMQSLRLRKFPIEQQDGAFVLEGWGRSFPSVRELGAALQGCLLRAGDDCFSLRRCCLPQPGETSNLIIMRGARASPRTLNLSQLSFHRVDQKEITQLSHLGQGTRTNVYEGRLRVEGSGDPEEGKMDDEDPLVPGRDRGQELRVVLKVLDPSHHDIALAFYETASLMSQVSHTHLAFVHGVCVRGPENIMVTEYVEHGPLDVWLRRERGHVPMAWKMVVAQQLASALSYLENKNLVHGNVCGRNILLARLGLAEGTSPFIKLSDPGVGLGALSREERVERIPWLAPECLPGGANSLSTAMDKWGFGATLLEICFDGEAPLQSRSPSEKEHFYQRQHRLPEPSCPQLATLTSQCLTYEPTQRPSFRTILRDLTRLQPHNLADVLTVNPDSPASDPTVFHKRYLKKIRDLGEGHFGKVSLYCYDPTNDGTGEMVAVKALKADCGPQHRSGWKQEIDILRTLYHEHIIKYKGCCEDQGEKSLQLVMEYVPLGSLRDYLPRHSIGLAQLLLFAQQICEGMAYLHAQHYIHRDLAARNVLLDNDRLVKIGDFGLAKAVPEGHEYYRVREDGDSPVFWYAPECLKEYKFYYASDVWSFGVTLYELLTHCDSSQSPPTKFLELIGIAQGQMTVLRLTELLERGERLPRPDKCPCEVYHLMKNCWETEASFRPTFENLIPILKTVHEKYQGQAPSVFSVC
Tyrosine-protein kinase JAK2, sequence (O60674 whole entry): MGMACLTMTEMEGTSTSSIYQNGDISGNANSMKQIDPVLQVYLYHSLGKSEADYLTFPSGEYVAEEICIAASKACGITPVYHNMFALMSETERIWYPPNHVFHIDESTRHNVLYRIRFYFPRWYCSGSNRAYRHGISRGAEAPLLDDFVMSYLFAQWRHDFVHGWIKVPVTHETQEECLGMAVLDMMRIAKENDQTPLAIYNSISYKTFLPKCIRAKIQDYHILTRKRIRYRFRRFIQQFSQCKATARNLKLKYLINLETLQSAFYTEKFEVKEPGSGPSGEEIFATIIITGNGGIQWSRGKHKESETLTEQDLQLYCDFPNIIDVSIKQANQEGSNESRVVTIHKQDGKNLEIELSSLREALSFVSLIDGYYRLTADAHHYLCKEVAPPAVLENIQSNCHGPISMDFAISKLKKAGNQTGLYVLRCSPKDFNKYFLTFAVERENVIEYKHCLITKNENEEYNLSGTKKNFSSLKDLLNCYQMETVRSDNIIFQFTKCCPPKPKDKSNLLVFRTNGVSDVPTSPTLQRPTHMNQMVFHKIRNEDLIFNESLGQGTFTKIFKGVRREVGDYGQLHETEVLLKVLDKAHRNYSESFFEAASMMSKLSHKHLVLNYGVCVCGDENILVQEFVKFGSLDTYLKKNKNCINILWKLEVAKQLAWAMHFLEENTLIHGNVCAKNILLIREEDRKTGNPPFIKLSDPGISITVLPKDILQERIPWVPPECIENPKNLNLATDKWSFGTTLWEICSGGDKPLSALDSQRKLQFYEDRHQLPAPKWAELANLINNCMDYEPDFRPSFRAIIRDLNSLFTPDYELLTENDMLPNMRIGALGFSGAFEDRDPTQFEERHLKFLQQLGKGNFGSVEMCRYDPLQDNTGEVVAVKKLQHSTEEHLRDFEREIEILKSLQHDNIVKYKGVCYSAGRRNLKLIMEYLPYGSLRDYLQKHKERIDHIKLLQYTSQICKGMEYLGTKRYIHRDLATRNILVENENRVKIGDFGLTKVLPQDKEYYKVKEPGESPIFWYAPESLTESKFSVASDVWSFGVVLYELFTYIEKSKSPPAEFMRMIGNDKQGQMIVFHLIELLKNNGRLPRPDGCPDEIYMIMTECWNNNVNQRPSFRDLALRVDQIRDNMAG

Row | Compound | pIC50 [1] | pIC50 [2] | pIC50 [3] | pIC50 [4] | pIC50 [5] | fraction unbound [6]
1 | CC1(C)[C@H](Nc2c(C(N)=O)cnn3cccc23)CC[C@]1(C)O (racemic) | 7.55 | 7.17 | 6.68 | 7.00 | 5.30 | –
2 | CC1(C)[C@H](Nc2c(C(N)=O)cnn3cccc23)CC[C@@]1(C)O (racemic) | 8.52 | 7.59 | 8.15 | 7.51 | 6.44 | 0.16
3 | CC1(C)C[C@@](C)(O)C[C@H]1Nc1c(C(N)=O)cnn2cccc12 (racemic) | 7.52 | 6.82 | 6.55 | 6.46 | 5.49 | –
4 | CC1(C)C[C@](C)(O)C[C@H]1Nc1c(C(N)=O)cnn2cccc12 (racemic) | 7.82 | 7.30 | 7.05 | 7.21 | 5.77 | –
5 | CC1(C)[C@H](N)CC[C@H]1Nc1c(C(N)=O)cnn2cccc12 (racemic) | 7.62 | 7.39 | 6.96 | 6.77 | 6.60 | –
6 | CC1(C)[C@@H](N)CC[C@H]1Nc1c(C(N)=O)cnn2cccc12 (racemic) | 7.92 | 7.47 | 6.96 | 6.89 | 6.59 | 0.44
7 | C[C@]1(O)CCC[C@H]1Nc1c(C(N)=O)cnn2cccc12 (racemic) | 7.16 | 6.96 | – | – | – | –
8 | C[C@@]1(O)CCC[C@H]1Nc1c(C(N)=O)cnn2cccc12 (racemic) | 7.38 | 6.57 | – | – | 5.28 | –
9 | C[C@]1(CO)CCC[C@H]1Nc1c(C(N)=O)cnn2cccc12 (racemic) | 7.62 | 7.08 | 7.47 | 6.96 | 5.82 | –
10 | C[C@@]1(CO)CCC[C@H]1Nc1c(C(N)=O)cnn2cccc12 (racemic) | 6.85 | 6.60 | 6.41 | 6.42 | – | –
11 | C[C@]1(C#N)CCC[C@H]1Nc1c(C(N)=O)cnn2cccc12 (racemic) | 8.00 | 7.82 | 8.22 | – | 6.60 | 0.27
12 | C[C@@]1(F)CCC[C@H]1Nc1c(C(N)=O)cnn2cccc12 (racemic) | 7.37 | 7.00 | 6.96 | 6.68 | – | –
